# Reference: patent US8709405B2, “Cancer vaccines containing epitopes of oncofetal antigen” (South Alabama Medical Science Foundation, priority 2002, dated 2014)
# Legend:
# Assay type in all cases: cell-based, BALB/c mouse
# [1] = system: Th1 Clone NC1; assay: BUdR incorporation ELISA proliferation assay, Th1 clone NC1; conditions: Table 11
# Protocol: (§1) The epitopes recognized by 15 iLRP-reactive T cell clones derived from either naive BALB/c mice, BALB/c mice bearing MCA1315 fibrosarcoma tumors, or from BALB/c mice immunized with either 1 or 10 μg of recombinant murine iLRP were determined by testing the proliferation of those clones to overlapping peptides spanning the region of the iLRP molecule recognized by each clone in the presence of IL-2, as a growth factor for T cells and irradiated, T cell-depleted, syngeneic spleen cells as antigen-presenting cells. Proliferation was measured through ELISA determination of 5-bromodeoxyuridine incorporation during culture.
# (§2) More specifically, the epitope-specificity of the iLRP-specific Th1, Tc, and Ts clones was determined using a modification of the 5′-bromodeoxyuridine (BudR) incorporation ELISA technique described in Rohrer, J. W., A. L. Barsoum, D. L. Dyess, J. A. Tucker, and J. H. Coggin, Jr. 1999. Human breast carcinoma patients develop clonable oncofetal antigen-specific effector and regulatory T lymphocytes. J. Immunol. 162:6880, using the Biotrak BUdR incorporation assay (Amersham, Arlington Heights, Ill.). […] When the required color density was reached, the reaction was stopped by adding 25 μl of 1M sulfuric acid to each well and the plate read on a microELISA reader at 450 nm. […]
# [2] = system: Tc Clone L2; assay: BUdR incorporation ELISA proliferation assay, Tc clone L2; conditions: Table 11
# Protocol: as §1, §2
# [3] = system: Th1 clone L3; assay: BUdR incorporation ELISA proliferation assay, Th1 clone L3; conditions: Table 12
# Protocol: as §1, §2
# [4] = system: Th1 clone NC4; assay: BUdR incorporation ELISA proliferation assay, Th1 clone NC4; conditions: Table 12
# Protocol: as §1, §2
# [5] = system: Th1 clone M2; assay: BUdR incorporation ELISA proliferation assay, Th1 clone M2; conditions: Table 12
# Protocol: as §1, §2
# [6] = system: Th1 clone H1; assay: BUdR incorporation ELISA proliferation assay, Th1 clone H1; conditions: Table 12; 100 ng/well, APC, 100 U/ml IL-2; two values given
# Protocol: as §1, §2
sequence,measurement,setting,value
GEWTAPAPEFTA [P18 (229-240)],Response of Th1 clone NC1 (in words),[1],responded best
same,Proliferation of CD8 Tc clone L2 (in words),[2],proliferated identically
TAQATEWVGATT [P31 (281-292)],Proliferation Results (A450) of Th1 Clone L3,"[3]; 100 ng/well, APC, 100 U/ml IL-2, two values given",".02, .02 A450"
TEWVGATTDWS [P32 (285-295)],Response of clone NC4 (in words),[4],responded best
QVPSVPIQQFPT [P24 (253-264)],Response of clone M2 (in words),[5],responded best
AQPEVADWSEGV [P21 (241-252)],Proliferation Results (A450) of Th1 Clone H1,[6],".02, .02 A450"
same,Response of clone L3 (in words),[3],responded best
